These results are taken from patent US20040067592A1, “Process for controlling microbial contamination of polymeric emulsions using carbon dioxide detection” (priority 2002, published 2004).

Where a name gives a salt, the structure may show the parent alone.

In assay [1] the test system is Gluconoacetobacter liquefaciens. Description: Headspace carbon dioxide concentration over inoculated AIRFLEX 400 emulsion after biocide addition. It is filed as cell-based.
Text: Sterile AIRFLEX® 400 (1600 grams) poly(vinyl alcohol) stabilized vinyl acetate/ethylene polymeric emulsion was placed in a 2L plastic Nalgene container. The plastic cover was modified with two ports. The first port was used to mount and insert the carbon dioxide sensor and the second, much smaller diameter port was left open to the atmosphere to permit venting and a constant pressure within the container. A Vaisala GMT222 direct reading carbon dioxide transmitter connected to a data logger and computer was used as the measuring device. The cover was then screwed on tightly and the headspace carbon dioxide concentration measured over the course of 3 days. During this entire monitoring period the headspace carbon dioxide concentration remained steady at approximately 400 ppm.
(§1) In an effort to determine the efficacy of carbon dioxide measurement as a detection mechanism for microbial growth, AIRFLEX 400 (1600 grams) poly(vinyl alcohol) stabilized (some biocide present) vinyl acetate/ethylene polymeric emulsion was inoculated with Gluconoacetobacter liquefaciens. The resulting concentration of Gluconoacetobacter liquefaciens in the Airflex 400 emulsion was measured via a dilution plate count on potato dextrose agar and found to be 5.4×10^4 cfu/ml. The contaminated emulsion was placed in a 2L plastic Nalgene container. The modified cover, equipped with the carbon dioxide sensor and vent hole, described in Example 1 was tightly screwed on. The headspace carbon dioxide level began rising above background (˜400 ppm) within a matter of minutes. After continually monitoring this sample for 2 days, the headspace carbon dioxide concentration leveled out at about 1600 ppm.
To the same contaminated sample described in Example 2 was added 400 ppm of dodecylguanidine hydrochloride (DGH) biocide to reduce the Gluconoacetobacter liquefaciens concentration.
(§2) The sample was then monitored for headspace carbon dioxide concentration as described in Examples 1 and 2. After continually monitoring this sample for 2 days the headspace carbon dioxide concentration leveled out at about 1150 ppm. A sample of the AIRFLEX 400 poly(vinyl alcohol) stabilized vinyl acetate/ethylene polymeric emulsion was removed from the container and the concentration of Gluconoacetobacter liquefaciens was measured on potato dextrose agar using a dilution plate count method.
as §2, with “To the same contaminated sample described in Example 3 was added an additional 375 ppm DGH to further reduce the Gluconoacetobacter liquefaciens concentration. The” for “The”, “for 3” for “for 2”, “about 1000” for “about 1150”
(§3) To the same contaminated sample described in Example 4 was added an additional 350 ppm DGH to further reduce the Gluconoacetobacter liquefaciens concentration. The sample was then monitored for headspace carbon dioxide concentration as described in Examples 1 and 2. After continually monitoring this sample for 3 days the headspace carbon dioxide concentration leveled out at about 800 ppm. A sample of the AIRFLEX 400 emulsion was removed from the container and the concentration of Gluconoacetobacter liquefaciens was measured on potato dextrose agar using a dilution plate count method.

Assay [2] has the same test system. Description: Dilution plate count on potato dextrose agar of inoculated AIRFLEX 400 emulsion after biocide addition. The format is cell-based. As to the method:
as §1, §2
as §3, with “3” for “4”, “375” for “350”, “1000” for “800”, “400 poly(vinyl alcohol) stabilized vinyl acetate/ethylene polymeric” for “400”
as §3

The mark [3] stands for this setting: Example 3, biocide 400 ppm, time 24 hour.
[4] abbreviates: Example 4, biocide 375 ppm (additional), time 96 hour.
Where [5] appears, read: Example 5, biocide 350 ppm (additional), time 96 hour.

On to `CCCCCCCCCCCCNC(=N)N` [DGH, dodecylguanidine hydrochloride], for which the “headspace carbon dioxide concentration leveled out” value is reported as “about 1150 ppm” in assay [1] (Example 3: 400 ppm DGH added to contaminated AIRFLEX 400 (5.4×10^4 cfu/ml, 1600 ppm CO2 before), monitored 2 days, background ~400 ppm); “about 1000 ppm” in assay [1] (Example 4: additional 375 ppm DGH added to Example 3 sample (400 ppm DGH), monitored 3 days); “about 800 ppm” in assay [1] (Example 5: additional 350 ppm DGH added to Example 4 sample (400 + 375 ppm DGH), monitored 3 days). In addition, the CO2 was found to be 1150 ppm in assay [1] (setting [3]), 1000 ppm in assay [1] (setting [4]) and 800 ppm in assay [1] (setting [5]). In addition, the “Gluconoacetobacter liquefaciens contamination level” value is 1.30×10^4 cfu/ml in assay [2] (Example 3: 400 ppm DGH added to contaminated AIRFLEX 400 (5.4×10^4 cfu/ml before), after 2 days); 4.40×10^3 cfu/ml in assay [2] (Example 4: additional 375 ppm DGH added to Example 3 sample (400 ppm DGH), after 3 days); 3.20×10^2 cfu/ml in assay [2] (Example 5: additional 350 ppm DGH added to Example 4 sample (400 + 375 ppm DGH), after 3 days). For the same molecule, the Contamination is listed as 1.3 × 10^4 CFU/ml in assay [2] (setting [3]), 4.4 × 10^3 CFU/ml in assay [2] (setting [4]) and 3.2 × 10^2 CFU/ml in assay [2] (setting [5]).
